Measurements from paper PMC7054845 (Journal of medicinal chemistry, 2019).

System: hMMP-12
Assay: hMMP-12 inhibition assay in diluted mouse plasma
Format: biochemical, human
Settings: mouse plasma versus buffer

SMILES: NC(=O)[C@H](CCC(=O)O)NC(=O)[C@H](CCC(=O)O)NC(=O)[C@H](Cc1cc(-c2ccc(-c3cccc(Cl)c3)cc2)no1)CP(=O)(O)c1ccc(Br)cc1 [RXP470.1]
- drop in affinity towards hMMP-12 in mouse plasma (factor): 470
